Experiments:
CYP1A2 [1] = test: CYP mRNA induction, cultured human hepatocytes from 3 donors; assay type: in vitro ADME; conditions: clinically relevant concentrations
Protocol: (§1) “mM^”=millimolar. CYP induction was evaluated using cultured human hepatocytes (from 3 donors) treated once daily for 3 days with RE/R concentrations to […].
(§2) CYP induction was evaluated in vitro using cultured human hepatocytes from 3 donors. Rodatristat ethyl and rodatristat caused negligible induction of CYP1A2 (<2% control for the most sensitive responder), CYP2B6 (mean±SD values relative to control of 16.2±20.0% and 15.0±17.9%, respectively), and CYP3A4 (7.1±6.41% and 10.3±11.9%, respectively) mRNA at 20 μM (the highest concentration studied). […] The highest values for induction of CYP2B6 by an individual donor at all concentrations tested were 60.1% and 57.4% at 10 μM for rodatristat ethyl and rodatristat, respectively, and for CYP3A4 were 13.3% and 23.0% at 20 μM, respectively.
(§3) The induction of specific CYP isoforms (CYP1A2, CYP2B6, CYP3A4) was investigated for RVT-1201 and KAR5417 in human hepatocytes (HH) (XT153040). […] CYP2B6 and CYP3A4 mRNA induction by RVT-1201 and KAR5417 (Emax and EC50) were used to estimate the PBPK model parameters Indmax and IndC50. Within the PBPK model, IndC50 is equal to EC50, the concentration of inducer that supports half maximal induction of the CYP isoform (estimated by a sigmoid three parameter fit to in vitro concentration-dependent mRNA induction data). Within the PBPK model, Indmax represents the maximum fold induction relative to incubation with vehicle only (vehicle=1). The reported Emax for RVT-1201 and KAR5417 was estimated by sigmoid three parameter fit to in vitro concentration-dependent mRNA induction data. Baseline activity was set equal to zero, rather than one, therefore reported Emax was increased by adding one to each value to estimate Indmax. CYP2B6 induction data was used in the PBPK model as reported. CYP3A4 induction data was scaled based on the maximum induction by rifampin (at 20 μM). Scaling of CYP3A4 induction using rifampin data from the same system leverages the extensive literature on rifampin induction in vitro and in vivo and allows adjustment of in vitro induction data based on the relative performance of rifampin in each in vitro incubation, and the empirical relationship between rifampin induction of CYP3A4 in vitro and in vivo.

CYP2B6 = test: as above; assay type: in vitro ADME; conditions: for Highest induction of CYP2B6 by an individual donor: 10 μM; for Induction of CYP2B6 mRNA, mean±SD relative to control: 20 μM; for Inducer classification, CYP2B6: clinically relevant concentrations; for In vitro induction parameter Emax, CYP2B6 / EC50: mRNA, human hepatocytes; for EC50: read-out: In vitro induction parameter EC50, CYP2B6; for Calculated R3 Value, CYP2B6: predicted @ 600 mg BID
Protocol: as §1, §2, §3

CYP3A4 [2] = test: as above; assay type: in vitro ADME; conditions: for Highest induction of CYP3A4 by an individual donor / Induction of CYP3A4 mRNA, mean±SD relative to control: 20 μM; for Inducer classification, CYP3A4: clinically relevant concentrations; for In vitro induction parameter Emax, CYP3A4 / EC50: mRNA, human hepatocytes; for EC50: read-out: In vitro induction parameter EC50, CYP3A4; for Calculated R3 Value, CYP3A4: predicted @ 600 mg BID
Protocol: as §1, §2, §3

CYP3A4 [3] = test: FDA guidance DDI risk assessment, perpetrator potential; parameters: species or system human; conditions: predicted @ 600 mg BID
Protocol: The potential for rodatristat ethyl or rodatristat to be perpetrators of drug-drug interactions was assessed across in vitro CYP and transporter studies (Tables 1-4). […] This analysis was performed to assess the potential for clinically meaningful DDIs as recommended in FDA Draft Guidance: “In Vitro Metabolism- and Transporter-Mediated Drug-Drug Interaction Studies Guidance for Industry”; October 2017 (FDA, 2017).
R1 and R3 values using free (non-protein bound) drug levels were calculated based on plasma protein binding (fraction bound, fb) of rodatristat ethyl (0.995) and rodatristat (0.991). The FDA Guidance is set forth In Vitro Metabolism- and Transporter-Mediated Drug-Drug Interaction Studies Guidance for Industry (2017). […] Parameters for the prediction are set forth below in Tables 5 and 6.

CYP1A2 [4] = biological target: T1, CYP1A2 (Homo sapiens, UniProt P05177); test: In vitro CYP substrate assessment (victim potential); assay type: in vitro ADME
T1 sequence (P05177 1-516): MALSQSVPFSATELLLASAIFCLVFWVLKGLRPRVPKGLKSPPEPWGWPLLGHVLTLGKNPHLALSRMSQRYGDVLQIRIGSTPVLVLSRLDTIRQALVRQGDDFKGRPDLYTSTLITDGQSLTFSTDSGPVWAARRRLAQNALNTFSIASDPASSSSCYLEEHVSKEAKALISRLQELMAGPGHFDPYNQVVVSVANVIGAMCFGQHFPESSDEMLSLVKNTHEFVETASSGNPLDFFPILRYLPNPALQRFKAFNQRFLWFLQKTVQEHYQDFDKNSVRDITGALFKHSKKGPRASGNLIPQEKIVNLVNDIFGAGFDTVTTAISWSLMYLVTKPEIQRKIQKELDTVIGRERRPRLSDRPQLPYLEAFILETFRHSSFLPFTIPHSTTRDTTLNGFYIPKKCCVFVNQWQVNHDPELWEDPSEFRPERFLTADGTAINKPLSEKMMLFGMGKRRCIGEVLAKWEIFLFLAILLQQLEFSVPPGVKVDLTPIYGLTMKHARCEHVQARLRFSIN

CYP2C19 = CYP2C19 (Homo sapiens, UniProt P33261); test: as above; assay type: in vitro ADME
Chain of CYP2C19 (P33261 whole entry): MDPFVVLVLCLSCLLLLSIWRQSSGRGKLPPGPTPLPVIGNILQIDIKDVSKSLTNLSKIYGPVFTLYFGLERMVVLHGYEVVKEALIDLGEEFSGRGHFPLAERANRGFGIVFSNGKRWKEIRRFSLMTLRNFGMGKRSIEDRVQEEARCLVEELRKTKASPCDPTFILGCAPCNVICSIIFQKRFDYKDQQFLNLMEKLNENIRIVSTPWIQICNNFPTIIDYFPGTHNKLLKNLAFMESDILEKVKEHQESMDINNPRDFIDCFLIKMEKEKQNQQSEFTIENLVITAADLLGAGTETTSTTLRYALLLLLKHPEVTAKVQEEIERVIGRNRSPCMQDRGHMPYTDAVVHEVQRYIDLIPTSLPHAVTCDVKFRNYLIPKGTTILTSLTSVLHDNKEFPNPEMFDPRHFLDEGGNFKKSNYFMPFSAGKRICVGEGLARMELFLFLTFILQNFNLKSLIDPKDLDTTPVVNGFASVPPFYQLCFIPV

P-gp = biological target: T2, P-gp (Homo sapiens, UniProt P08183); test: Transporter inhibition, Caco-2 cells, digoxin probe; assay type: in vitro ADME; conditions: for Potential for interaction? (transporter inhibitor), P-gp: predicted @ 600 mg BID
T2 construct: endogenous in cells; host or cells: Caco-2
T2 sequence (P08183 whole entry): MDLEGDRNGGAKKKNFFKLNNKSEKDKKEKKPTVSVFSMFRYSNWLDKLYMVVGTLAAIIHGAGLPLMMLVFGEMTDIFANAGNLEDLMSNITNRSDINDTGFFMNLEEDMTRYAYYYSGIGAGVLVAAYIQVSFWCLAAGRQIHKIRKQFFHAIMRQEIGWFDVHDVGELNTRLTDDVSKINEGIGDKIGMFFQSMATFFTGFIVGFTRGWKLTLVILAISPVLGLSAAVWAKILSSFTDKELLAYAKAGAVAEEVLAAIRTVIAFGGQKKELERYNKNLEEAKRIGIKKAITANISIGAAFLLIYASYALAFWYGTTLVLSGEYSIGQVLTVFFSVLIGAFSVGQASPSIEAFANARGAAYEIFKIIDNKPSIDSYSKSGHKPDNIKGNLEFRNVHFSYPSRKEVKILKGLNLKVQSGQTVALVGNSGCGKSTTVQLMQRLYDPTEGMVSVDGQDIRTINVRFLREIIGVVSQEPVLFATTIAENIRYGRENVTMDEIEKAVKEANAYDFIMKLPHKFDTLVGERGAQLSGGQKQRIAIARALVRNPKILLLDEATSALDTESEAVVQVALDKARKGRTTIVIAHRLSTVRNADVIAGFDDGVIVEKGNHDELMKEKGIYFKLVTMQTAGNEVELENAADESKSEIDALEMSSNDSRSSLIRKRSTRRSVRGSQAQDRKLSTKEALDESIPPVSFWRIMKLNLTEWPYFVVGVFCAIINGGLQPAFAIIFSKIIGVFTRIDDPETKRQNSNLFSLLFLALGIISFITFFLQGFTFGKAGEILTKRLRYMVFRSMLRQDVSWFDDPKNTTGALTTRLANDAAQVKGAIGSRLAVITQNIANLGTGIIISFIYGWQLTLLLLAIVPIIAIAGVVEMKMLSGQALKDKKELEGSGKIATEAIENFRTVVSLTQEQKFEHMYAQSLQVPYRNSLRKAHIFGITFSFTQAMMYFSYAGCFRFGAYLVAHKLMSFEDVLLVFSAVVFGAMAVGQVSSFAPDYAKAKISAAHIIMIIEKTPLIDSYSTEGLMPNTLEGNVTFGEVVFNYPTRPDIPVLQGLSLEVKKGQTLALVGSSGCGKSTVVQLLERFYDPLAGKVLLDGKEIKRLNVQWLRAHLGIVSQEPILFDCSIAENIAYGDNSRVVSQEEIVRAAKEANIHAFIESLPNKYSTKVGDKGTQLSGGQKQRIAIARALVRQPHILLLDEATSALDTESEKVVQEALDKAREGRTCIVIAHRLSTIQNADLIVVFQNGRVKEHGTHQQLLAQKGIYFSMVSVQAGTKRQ
Protocol: The competitive inhibition of specific transporters was investigated for RVT-1201 and KAR5417 in transporter-expressing in vitro systems (XT158039). Inhibition of P-gp was evaluated using a Caco-2 cell line with digoxin as probe substrate. Inhibition of OATP1B1 and OATP1B3 was evaluated using a HEK293 cell line expressing these transporters with estradiol-17β-glucuronide as probe substrate. In addition, inhibition of other transporters was also investigated (BCRP, OAT1, OAT3, OCT2, MATE1, MATE2-K). The IC50 estimates for P-gp (RVT-1201) and OATP1B1/3 (RVT-1201 and KAR5417) supported further evaluation of inhibition DDI potential using the PBPK model. For each IC50 estimate, substrate concentration and Km were used to estimate RVT-1201 and KAR5417 Ki with Equation 1 (Cheng and Prusoff, 1973).

| Inducer classification, CYP1A2 (CYP1A2 [1]) | Highest induction of CYP2B6 by an individual donor (CYP2B6) | Induction of CYP2B6 mRNA, mean±SD relative to control (CYP2B6) | Inducer classification, CYP2B6 (CYP2B6) | In vitro induction parameter Emax, CYP2B6 (CYP2B6) | EC50 (CYP2B6) | Calculated R3 Value, CYP2B6 (CYP2B6) | Highest induction of CYP3A4 by an individual donor (CYP3A4 [2]) | Induction of CYP3A4 mRNA, mean±SD relative to control (CYP3A4 [2]) | Inducer classification, CYP3A4 (CYP3A4 [2]) | In vitro induction parameter Emax, CYP3A4 (CYP3A4 [2]) | EC50 (CYP3A4 [2]) | Calculated R3 Value, CYP3A4 (CYP3A4 [2]) | Calculated R3 Value, CYP3A4 (CYP3A4 [2]; listed as rodatristat ethyl) | Potential for interaction (perpetrator), CYP3A4 (CYP3A4 [3]) | In vitro substrate? CYP1A2 (CYP1A2 [4]) | In vitro substrate? CYP2C19 (CYP2C19) | IC50 (P-gp; Caco 2 cells, read-out: In vitro IC50, P-gp) | Potential for interaction? (transporter inhibitor), P-gp (P-gp) | Inhibition of P-gp (in words) (P-gp) | Compound |
| --- | --- | --- | --- | --- | --- | --- | --- | --- | --- | --- | --- | --- | --- | --- | --- | --- | --- | --- | --- | --- |
| not considered inducers | 60.1% | 16.2±20.0% | potentially weak to moderate inducers | 3.1 | 6.16 µM | 0.960 | 13.3% | 7.1±6.41% | potential weak inducers | 4.53 | 15.6 µM | 0.925 | 0.478 | Yes | No | No | 3.32 µM | Yes | – | CCOC(=O)[C@@H]1CC2(CCN(c3cc(O[C@H](c4ccc(Cl)cc4-c4ccccc4)C(F)(F)F)nc(N)n3)CC2)CN1 [Rodatristat ethyl, (S)-ethyl 8-(2-amino-6-((R)-1-(5-chloro-[1,1′-biphenyl]-2-yl)-2,2,2-trifluoroethoxy)pyrimidin-4-yl)-2,8-diazaspiro[4.5]decane-3-carboxylate] |
| not considered inducers | 57.4% | 15.0±17.9% | potentially weak to moderate inducers | 2.95 | 5.6 µM | 0.766 | 23.0% | 10.3±11.9% | potential weak inducers | 4.5 | 26.7 µM | 0.476 | – | Yes | No | No | – | No | not an inhibitor | Nc1nc(O[C@H](c2ccc(Cl)cc2-c2ccccc2)C(F)(F)F)cc(N2CCC3(CC2)CN[C@H](C(=O)O)C3)n1 [Rodatristat, (S)-8-(2-amino-6-((R)-1-(5-chloro-[1,1′-biphenyl]-2-yl)-2,2,2-trifluoroeth-oxy)pyrimidin-4-yl)-2,8-diazaspiro[4.5]decane-3-carboxylic acid] |

Reference: patent US20230074252A1, “DOSAGES AND METHODS FOR TREATING PULMONARY ARTERIAL HYPERTENSION WITH RODATRISTAT” (Altavant Sciences GmbH, priority 2020, published 2023)
